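These data come from cells grown in 96-well plates and exposed to compound for 48 hours at five concentrations. At the GI50, growth is halved. TGI denotes the concentration required for complete inhibition of growth.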
Legend:
Assay in all cases: growth of human tumour cells (NCI), 48 h
[1] = test system: COLO 205 colon
[2] = test system: UO-31 renal
[3] = test system: TK-10 renal
[4] = test system: CAKI-1 renal
[5] = test system: M14 melanoma
[6] = test system: OVCAR-4 ovarian
[7] = test system: MOLT-4 leukemia
[8] = test system: MDA-N
[9] = test system: SK-MEL-5 melanoma
[10] = test system: LOX IMVI melanoma
[11] = test system: OVCAR-3 ovarian
[12] = test system: MALME-3M melanoma
[13] = test system: NCI/ADR-RES ovarian
[14] = test system: UACC-62 melanoma
[15] = test system: MCF7 breast
[16] = test system: OVCAR-8 ovarian
[17] = test system: MDA-MB-231 breast
[18] = test system: CCRF-CEM leukemia
[19] = test system: SR leukemia
[20] = test system: SW-620 colon
[21] = test system: OVCAR-5 ovarian
[22] = test system: KM12 colon
[23] = test system: NCI-H23 lung
[24] = test system: SNB-75 CNS
[25] = test system: SK-MEL-2 melanoma
[26] = test system: NCI-H460 lung
[27] = test system: HOP-92 NSCLC
[28] = test system: PC-3 prostate
[29] = test system: BT-549 breast
[30] = test system: HCT-116 colon
[31] = test system: SK-OV-3 ovarian
[32] = test system: ACHN renal
[33] = test system: HCT-15 colon
[34] = test system: U251 CNS
[35] = test system: SF-295 CNS
[36] = test system: MDA-MB-435
[37] = test system: SN12C renal
[38] = test system: IGROV1 ovarian
[39] = test system: SNB-19 CNS
[40] = test system: A549 NSCLC
[41] = test system: HT29 colon
[42] = test system: A498 renal
[43] = test system: HOP-62 NSCLC
[44] = test system: 786-0 renal
[45] = test system: SK-MEL-28 melanoma
[46] = test system: T-47D breast
[47] = test system: DU-145 prostate
[48] = test system: K-562 leukemia
[49] = test system: EKVX NSCLC
[50] = test system: NCI-H226 lung
[51] = test system: SF-539 CNS
[52] = test system: HS 578T breast
[53] = test system: HCC-2998 colon
[54] = test system: UACC-257 melanoma
[55] = test system: RPMI-8226 leukemia
[56] = test system: RXF 393 renal
[57] = test system: SF-268 CNS
[58] = test system: NCI-H522 lung

SMILES: O=C(/C=C/c1ccc2c(c1)OCO2)NCc1ccco1
- TGI [1]: > 100 µM
- TGI [2]: > 100 µM
- TGI [3]: > 100 µM
- TGI [4]: > 100 µM
- TGI [5]: > 100 µM
- TGI [6]: > 100 µM
- TGI [7]: > 100 µM
- TGI [8]: > 100 µM
- TGI [9]: > 100 µM
- TGI [10]: > 100 µM
- TGI [11]: > 100 µM
- TGI [12]: > 100 µM
- TGI [13]: > 100 µM
- TGI [14]: > 100 µM
- TGI [15]: > 100 µM
- TGI [16]: > 100 µM
- TGI [17]: > 100 µM
- TGI [18]: > 100 µM
- TGI [19]: > 100 µM
- TGI [20]: > 100 µM
- TGI [21]: > 100 µM
- TGI [22]: > 100 µM
- TGI [23]: > 100 µM
- TGI [24]: > 100 µM
- TGI [25]: > 100 µM
- TGI [26]: > 100 µM
- TGI [27]: > 100 µM
- TGI [28]: > 100 µM
- TGI [29]: > 100 µM
- TGI [30]: > 100 µM
- TGI [31]: > 100 µM
- TGI [32]: > 100 µM
- TGI [33]: > 100 µM
- TGI [34]: > 100 µM
- TGI [35]: > 100 µM
- TGI [36]: > 100 µM
- TGI [37]: > 100 µM
- TGI [38]: > 100 µM
- TGI [39]: > 100 µM
- TGI [40]: > 100 µM
- TGI [41]: > 100 µM
- TGI [42]: > 100 µM
- TGI [43]: > 100 µM
- TGI [44]: > 100 µM
- TGI [45]: > 100 µM
- TGI [46]: 80.9 µM
- TGI [47]: > 100 µM
- TGI [48]: > 100 µM
- TGI [49]: > 100 µM
- TGI [50]: > 100 µM
- TGI [51]: > 100 µM
- TGI [52]: > 100 µM
- TGI [53]: > 100 µM
- TGI [54]: > 100 µM

SMILES: O=[N+]([O-])[O][Sn]([O][Sn]([O][N+](=O)[O-])([c]1ccccc1)[c]1ccccc1)([c]1ccccc1)[c]1ccccc1
- GI50 [1]: > 100 µM
- TGI [1]: > 100 µM
- GI50 [2]: > 100 µM
- TGI [2]: > 100 µM
- GI50 [3]: > 100 µM
- TGI [3]: > 100 µM
- GI50 [4]: > 100 µM
- TGI [4]: > 100 µM
- GI50 [5]: > 100 µM
- TGI [5]: > 100 µM
- GI50 [6]: > 100 µM
- TGI [6]: > 100 µM
- GI50 [7]: > 100 µM
- TGI [7]: > 100 µM
- GI50 [55]: > 100 µM
- TGI [55]: > 100 µM
- GI50 [8]: > 100 µM
- TGI [8]: > 100 µM
- GI50 [9]: > 100 µM
- TGI [9]: > 100 µM
- GI50 [10]: 83.4 µM
- TGI [10]: > 100 µM
- GI50 [11]: > 100 µM
- TGI [11]: > 100 µM
- GI50 [12]: 79.3 µM
- TGI [12]: > 100 µM
- GI50 [13]: > 100 µM
- TGI [13]: > 100 µM
- GI50 [14]: 53.6 µM
- TGI [14]: > 100 µM
- GI50 [15]: > 100 µM
- TGI [15]: > 100 µM
- GI50 [16]: > 100 µM
- TGI [16]: > 100 µM
- GI50 [17]: > 100 µM
- TGI [17]: > 100 µM
- GI50 [19]: > 100 µM
- TGI [19]: > 100 µM
- GI50 [20]: > 100 µM
- TGI [20]: > 100 µM
- GI50 [21]: > 100 µM
- TGI [21]: > 100 µM
- GI50 [22]: > 100 µM
- TGI [22]: > 100 µM
- GI50 [56]: > 100 µM
- TGI [56]: > 100 µM
- GI50 [23]: > 100 µM
- TGI [23]: > 100 µM
- GI50 [24]: > 100 µM
- TGI [24]: > 100 µM
- GI50 [25]: > 100 µM
- TGI [25]: > 100 µM
- GI50 [26]: > 100 µM
- TGI [26]: > 100 µM
- GI50 [27]: 38.6 µM
- TGI [27]: > 100 µM
- GI50 [28]: 63.2 µM
- TGI [28]: > 100 µM
- GI50 [29]: > 100 µM
- TGI [29]: > 100 µM
- GI50 [30]: > 100 µM
- TGI [30]: > 100 µM
- GI50 [31]: > 100 µM
- TGI [31]: > 100 µM
- GI50 [32]: > 100 µM
- TGI [32]: > 100 µM
- GI50 [33]: > 100 µM
- TGI [33]: > 100 µM
- GI50 [34]: > 100 µM
- TGI [34]: > 100 µM
- GI50 [35]: > 100 µM
- TGI [35]: > 100 µM
- GI50 [36]: > 100 µM
- TGI [36]: > 100 µM
- GI50 [37]: > 100 µM
- TGI [37]: > 100 µM
- GI50 [38]: 72.8 µM
- TGI [38]: > 100 µM
- GI50 [39]: > 100 µM
- TGI [39]: > 100 µM
- GI50 [40]: > 100 µM
- TGI [40]: > 100 µM
- GI50 [41]: > 100 µM
- TGI [41]: > 100 µM
- GI50 [42]: > 100 µM
- TGI [42]: > 100 µM
- GI50 [43]: > 100 µM
- TGI [43]: > 100 µM
- GI50 [44]: > 100 µM
- TGI [44]: > 100 µM
- GI50 [45]: > 100 µM
- TGI [45]: > 100 µM
- GI50 [46]: > 100 µM
- TGI [46]: > 100 µM
- GI50 [47]: > 100 µM
- TGI [47]: > 100 µM
- GI50 [48]: > 100 µM
- TGI [48]: > 100 µM
- GI50 [49]: > 100 µM
- TGI [49]: > 100 µM
- GI50 [50]: > 100 µM
- TGI [50]: > 100 µM
- GI50 [57]: > 100 µM
- TGI [57]: > 100 µM
- GI50 [51]: > 100 µM
- TGI [51]: > 100 µM
- GI50 [52]: 47.1 µM
- TGI [52]: > 100 µM
- GI50 [58]: 23.1 µM
- TGI [58]: > 100 µM
- GI50 [53]: > 100 µM
- TGI [53]: > 100 µM
- GI50 [54]: > 100 µM
- TGI [54]: > 100 µM

— PubChem BioAssay (NCI)
